Test results from patent US9809589B2, “Crystal form of compound used as mineralocorticoid receptor antagonist and preparation method therefor” (KBP BIOSCIENCES CO., LTD., priority 2012, dated 2017).
“Also recorded” adds a separate entry of the source.

Columns and labels:
[1] = test system: high salt induced Dahl salt sensitive (Dahl/SS) rats; experiment: Assay 3: pathological examinations for kidney and heart (organ protection) in Dahl/ss rat model; type: in vivo; settings: for left ventricular wall thickness (mean ± SD) / Kidney injury scores (Mean ± SD): 42 days high salt chow; for Kidney injury scores (Mean ± SD): HE stain
Protocol: (§1) Organ protection and depressurization effect of Crystal Form I of the present invention on the high salt induced Dahl salt sensitive (Dahl/SS) rats
(§2) The solid dispersion of Crystal Form I of the present invention (Crystal Form I of the present invention: PVPK30=1:8 (w/w)): the solid dispersion of Crystal Form I of the present invention was formulated with a suitable amount of sterile water for injection into suspensions having concentrations of 0.03, 0.10, 0.30, and 1.00 mg/mL. The suspension was prepared before use every day.
(§3) Experiment animals: male Dahl/ss rats of SPF (specific pathogen free)-grade, 8-9 weeks, purchased via Vital River Laboratories from HARLAN LABORATORIES, INC. After one week normal quarantine, rats in good sign and condition were used in the experiment.
(§4) Dahl/ss rats were randomly divided into six groups according to the blood pressure measurement before administration:
(§5) The in vivo pharmacodynamic activity of Crystal Form I of the present invention was evaluated by the hypertension and kidney injury Dahl/ss rat's model.
(§6) One week before the experiment, the blood pressures of rats were monitored twice by the tail-cuff blood pressure measurement so that the rats could accommodate the blood pressure monitoring operation. The blood pressures of rats were monitored once before starting the experiment and used as the basic blood pressures before administration. The rats were randomly divided into groups according to the measured blood pressures before administration. The model was established by feeding the rats with a high salt chow (AIN-93G experiment animal feed containing 4% NaCl) for 42 days, in which the rats were freely accessible to food and water. And rats in control group were fed with a low-sodium chow.
(§7) The rats in the treatment groups with Crystal Form I of the present invention were respectively administrated with Crystal Form I of the present invention in a dosage of 0.3, 1, 3, and 10 mg/kg/day. Rats in treatment groups were dosed orally via gavage twice a day by 5 mL/kg. The rats in the model group and in the normal control were administrated with the same volume of sterile water for injection.
The pathological examinations for kidney and heart: After the experiment, the rats were killed in a painless manner. The heart and the bilateral kidneys were collected for histopathology analysis. Kidney injury was scored and semi-quantitatively analyzed based on hematoxylin-eosin (HE) stain. The heart injury was analyzed by the measurement of left ventricular wall thickness.

[2] = Assay 1: stability (influencing factor tests) for Crystal Form I; HPLC content; type: physicochemical
Protocol: Assay 1: Stability for Crystal Form I of the Present Compound
Crystal Form I of the compound represented by formula (1): Crystal Form I was prepared according to Example 2.
(§8) (1) Crystal Form I of the compound represented by formula (1) was laid on a dry and clean watch glass, and kept at 60° C. for 10 days. Samples were taken respectively on Day 5 and Day 10. The contents of the relevant substance and the compound represented by formula (1) in the sample were measured, and compared with the contents of those in the sample taken on Day 0;
(2) Crystal Form I of the compound represented by formula (1) was packaged and sealed with a low-density polyethylene bag for pharmaceutical use in the inner layer and with a polyester/aluminum/polyethylene composite film for pharmaceutical package in the outer layer, and kept at 60° C. for 10 days. Samples were taken respectively on Day 5 and Day 10. The contents of the relevant substance and the compound represented by formula (1) in the sample were measured, and compared with the contents of those in the sample taken on Day 0.
as §8, with “High humidity test: Crystal” for “(1) Crystal”, “at 25°” for “at 60°”, “C. under a relative humidity of 90%±5%” for “C.”, “Day 0.” for “Day 0;”
as §8, with “Photostability test: Crystal” for “(1) Crystal”, “at an illuminance of 4500 L×±500 L× in an illumination box” for “at 60° C.”, “Day 0.” for “Day 0;”
The content of the compound represented by formula (1) was measured by using an external standard method in accordance with the High Performance Liquid Chromatography in Chinese Pharmacopoeia, Appendix V D, Edition 2010.
The content of the relevant substance was measured by using an area normalization method in accordance with the High Performance Liquid Chromatography in Chinese Pharmacopoeia, Appendix V D, Edition 2010.

[3] = test system: high salt induced Dahl salt sensitive (Dahl/SS) rats; experiment: Assay 3: depressurization effect (SBP, tail-cuff) in hypertension and kidney injury Dahl/ss rat model; type: in vivo; settings: for SBP Before Administration (mean ± SD): baseline, solid dispersion with PVPK30 1:8, oral gavage twice a day; for SBP After Administration (on 41th day) (mean ± SD): oral gavage twice a day, 4% NaCl chow, solid dispersion with PVPK30 1:8
Protocol: as §1, §2, §3, §4, §5, §6, §7
Blood pressure (systolic blood pressure, abbreviated as SBP) measurement: The blood pressure was measured once each week for six weeks. The blood pressure changes were analyzed for each group.

[4] = 60° C.-(1), open watch glass, Day 5
[5] = 60° C.-(1), open watch glass, Day 10
[6] = 60° C.-(2), packaged and sealed, Day 5
[7] = 60° C.-(2), packaged and sealed, Day 10

- Content of the compound represented by formula (1) [2, 4]: 98.9%
- Content of the relevant substance [2, 4]: 0.82%
- Content of the compound represented by formula (1) [2, 5]: 98.1%
- Content of the relevant substance [2, 5]: 0.97%
- Content of the compound represented by formula (1) [2, 6]: 99.7%
- Content of the relevant substance [2, 6]: 0.58%
- Content of the compound represented by formula (1) [2, 7]: 99.0%
- Content of the relevant substance [2, 7]: 0.60%
- Content of the compound represented by formula (1) ([2]; 4500 Lx ± 500 Lx, Day 5): 98.1%
- Content of the relevant substance ([2]; 4500 Lx ± 500 Lx, Day 5): 1.2%
- Content of the compound represented by formula (1) ([2]; 4500 Lx ± 500 Lx, Day 10): 97.0%
- Content of the relevant substance ([2]; 4500 Lx ± 500 Lx, Day 10): 2.0%
- Content of the compound represented by formula (1) ([2]; Day 0): 99.5%
- Content of the relevant substance ([2]; Day 0): 0.54%
- Content of the compound represented by formula (1) ([2]; RH90% ± 5%, 25° C., Day 5): 99.1%
- Content of the relevant substance ([2]; RH90% ± 5%, 25° C., Day 5): 0.56%
- Content of the compound represented by formula (1) ([2]; RH90% ± 5%, 25° C., Day 10): 99.0%
- Content of the relevant substance ([2]; RH90% ± 5%, 25° C., Day 10): 0.56%
- Change of contents of the relevant substance and the compound represented by formula (1) ([2]; high temperature, high humidity, illumination): substantially did not change
SMILES: N#Cc1ccc(N2N=C3c4ccc(C(=O)N5CCC(O)CC5)nc4CC[C@@H]3[C@@H]2C2CCCC2)cc1Cl [Crystal Form I, 2-chloro-4-[(3S,3aR)-3-cyclopentyl-7-(4-hydroxypiperidin-1-carbonyl)-3,3a,4,5-tetrahydro-2H-pyrazolo[3,4-f]quinolin-2-yl]benzonitrile]
- left ventricular wall thickness (mean ± SD) ([1]; 0.3 mg/kg/day oral): 0.392 ± 0.024 cm
- Kidney injury scores (Mean ± SD) ([1]; 0.3 mg/kg/day oral): 2.02 ± 0.268
- left ventricular wall thickness (mean ± SD) ([1]; 1 mg/kg/day oral): 0.383 ± 0.017 cm
- Kidney injury scores (Mean ± SD) ([1]; 1 mg/kg/day oral): 1.25 ± 0.428
- left ventricular wall thickness (mean ± SD) ([1]; 3 mg/kg/day oral): 0.381 ± 0.026 cm
- Kidney injury scores (Mean ± SD) ([1]; 3 mg/kg/day oral): 1.84 ± 0.596
- left ventricular wall thickness (mean ± SD) ([1]; 10 mg/kg/day oral): 0.383 ± 0.019 cm
- Kidney injury scores (Mean ± SD) ([1]; 10 mg/kg/day oral): 1.71 ± 0.719
- Heart protection (left ventricular wall thickness) ([1]; compared with the model group): significantly decreased the left ventricular wall thickness
- Kidney protection (kidney injury score) ([1]; treatment groups vs model group, listed as Crystal Form I of the present invention): remarkable prevention from the increase in the kidney injury score; also recorded: kidney injury protection
- Stability compared with the amorphous form [2]: superior to the amorphous form in the stability
- SBP Before Administration (mean ± SD) ([3]; 0.3 mg/kg/day group): 140.8 ± 9.6 mmHg
- SBP After Administration (on 41th day) (mean ± SD) ([3]; 0.3 mg/kg/day): 166.5 ± 10.2 mmHg
- SBP Before Administration (mean ± SD) ([3]; 1 mg/kg/day group): 140.9 ± 9.5 mmHg
- SBP After Administration (on 41th day) (mean ± SD) ([3]; 1 mg/kg/day): 148.7 ± 9.6 mmHg
- SBP Before Administration (mean ± SD) ([3]; 3 mg/kg/day group): 141.0 ± 9.4 mmHg
- SBP After Administration (on 41th day) (mean ± SD) ([3]; 3 mg/kg/day): 141.6 ± 8.0 mmHg
- SBP Before Administration (mean ± SD) ([3]; 10 mg/kg/day group): 141.2 ± 9.2 mmHg
- SBP After Administration (on 41th day) (mean ± SD) ([3]; 10 mg/kg/day): 141.2 ± 9.6 mmHg
- Depressurization effect ([3]; 0.3-10 mg/kg/day oral, high salt Dahl/ss rats, listed as Crystal Form I of the present invention): significant depressurization effect; also recorded: remarkable depressurization effect
